Holding throughout (format): cell-based
One test addresses T1, M1 muscarinic receptor (Homo sapiens, UniProt P11229).
T1 construct: expressed in transfected cells; host or cells: CHO (M1-CHO)
T1 sequence (P11229 1-460): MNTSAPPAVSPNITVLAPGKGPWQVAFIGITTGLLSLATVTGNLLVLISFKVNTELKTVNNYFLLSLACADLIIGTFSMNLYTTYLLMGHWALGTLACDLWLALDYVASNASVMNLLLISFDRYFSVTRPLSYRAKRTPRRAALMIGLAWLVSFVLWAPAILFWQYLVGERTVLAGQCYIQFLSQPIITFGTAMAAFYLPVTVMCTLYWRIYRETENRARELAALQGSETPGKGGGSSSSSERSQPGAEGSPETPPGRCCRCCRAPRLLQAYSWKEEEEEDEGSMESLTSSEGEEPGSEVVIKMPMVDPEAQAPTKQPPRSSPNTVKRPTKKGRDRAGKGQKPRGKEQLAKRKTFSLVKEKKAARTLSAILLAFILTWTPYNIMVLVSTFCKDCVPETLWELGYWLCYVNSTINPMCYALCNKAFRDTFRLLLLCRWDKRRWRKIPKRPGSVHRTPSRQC
The experiment in a line: Functional mobilization of intracellular calcium (FLIPR), M1-CHO cells. To be noted: for Emax: 100% efficacy = maximum response obtained with the Carbachol control; for M1 Activity: M1-CHO cells, calcium mobilization (FLIPR). Put shortly: (§1)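 FLIPR fluorescence (ex 488, em 540 nm) recorded 60 sec after compound addition to dye-loaded CHO cells. Agonist mode: compound alone. Antagonist mode: 15 min compound pre-incubation, then carbachol at EC80, or co-application. Efficacy expressed as % of maximal carbachol response.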
(In general: A change in cytosolic calcium serves as a functional read-out for many receptors and channels.)

The next test deals with T2, M4 muscarinic receptor (Homo sapiens, UniProt P08173).
T2 construct: expressed in transfected cells; host or cells: CHO (M4-CHO)
T2 sequence (P08173 1-479): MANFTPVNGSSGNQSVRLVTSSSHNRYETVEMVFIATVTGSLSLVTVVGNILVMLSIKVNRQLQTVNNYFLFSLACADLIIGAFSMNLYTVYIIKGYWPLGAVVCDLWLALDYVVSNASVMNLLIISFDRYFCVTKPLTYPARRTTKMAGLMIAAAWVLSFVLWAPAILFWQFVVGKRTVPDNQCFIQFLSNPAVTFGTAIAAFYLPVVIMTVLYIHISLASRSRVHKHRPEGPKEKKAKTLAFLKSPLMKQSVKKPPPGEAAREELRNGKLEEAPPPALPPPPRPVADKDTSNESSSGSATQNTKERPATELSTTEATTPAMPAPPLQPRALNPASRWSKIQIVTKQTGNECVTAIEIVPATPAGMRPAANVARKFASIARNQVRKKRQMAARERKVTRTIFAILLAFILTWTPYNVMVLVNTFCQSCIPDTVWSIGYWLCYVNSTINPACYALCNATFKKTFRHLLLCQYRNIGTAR
The experiment in a line: Functional mobilization of intracellular calcium (FLIPR), M4-CHO cells. To be noted: for Emax: 100% efficacy = maximum response obtained with the Carbachol control; for M4 Activity: M4-CHO cells, calcium mobilization (FLIPR). Put shortly: as §1

The target of a further test is T3, M3 muscarinic receptor (Homo sapiens, UniProt P20309).
T3 construct: expressed in transfected cells; host or cells: CHO (M3-CHO)
Description: Functional mobilization of intracellular calcium (FLIPR), M3-CHO cells. Conditions: for Emax: 100% efficacy = maximum response obtained with the Carbachol control; for M3 Activity: M3-CHO cells, calcium mobilization (FLIPR). Put shortly: as §1

A further test has as its target T4, M2 muscarinic receptor (Homo sapiens, UniProt P08172).
T4 construct: expressed in transfected cells; host or cells: CHO (M2-CHO)
T4 sequence (P08172 1-466): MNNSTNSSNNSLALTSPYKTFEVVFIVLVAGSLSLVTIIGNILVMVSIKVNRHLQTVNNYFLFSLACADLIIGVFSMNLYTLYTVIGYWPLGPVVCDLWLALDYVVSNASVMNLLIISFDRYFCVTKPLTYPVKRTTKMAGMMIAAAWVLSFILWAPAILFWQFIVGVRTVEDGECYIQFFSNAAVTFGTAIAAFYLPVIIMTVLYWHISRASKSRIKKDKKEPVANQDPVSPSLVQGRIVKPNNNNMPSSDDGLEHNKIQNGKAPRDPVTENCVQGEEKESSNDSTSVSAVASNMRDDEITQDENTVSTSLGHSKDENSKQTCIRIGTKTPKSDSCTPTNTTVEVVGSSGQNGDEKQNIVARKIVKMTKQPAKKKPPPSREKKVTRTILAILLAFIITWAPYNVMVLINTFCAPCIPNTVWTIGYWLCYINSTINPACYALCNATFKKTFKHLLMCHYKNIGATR
Description: Functional mobilization of intracellular calcium (FLIPR), M2-CHO cells. To be noted: for Emax: 100% efficacy = maximum response obtained with the Carbachol control; for M2 Activity: M2-CHO cells, calcium mobilization (FLIPR). In outline:
as §1

Consider twelve molecules from patent US7880007B2, “Bicyclic substituted phenyl piperidine modulators of muscarinic receptors” (Vertex Pharmaceuticals Incorporated, priority 2004, dated 2011).

SMILES strings stand for the structures.

T3 sequence (P20309 whole entry): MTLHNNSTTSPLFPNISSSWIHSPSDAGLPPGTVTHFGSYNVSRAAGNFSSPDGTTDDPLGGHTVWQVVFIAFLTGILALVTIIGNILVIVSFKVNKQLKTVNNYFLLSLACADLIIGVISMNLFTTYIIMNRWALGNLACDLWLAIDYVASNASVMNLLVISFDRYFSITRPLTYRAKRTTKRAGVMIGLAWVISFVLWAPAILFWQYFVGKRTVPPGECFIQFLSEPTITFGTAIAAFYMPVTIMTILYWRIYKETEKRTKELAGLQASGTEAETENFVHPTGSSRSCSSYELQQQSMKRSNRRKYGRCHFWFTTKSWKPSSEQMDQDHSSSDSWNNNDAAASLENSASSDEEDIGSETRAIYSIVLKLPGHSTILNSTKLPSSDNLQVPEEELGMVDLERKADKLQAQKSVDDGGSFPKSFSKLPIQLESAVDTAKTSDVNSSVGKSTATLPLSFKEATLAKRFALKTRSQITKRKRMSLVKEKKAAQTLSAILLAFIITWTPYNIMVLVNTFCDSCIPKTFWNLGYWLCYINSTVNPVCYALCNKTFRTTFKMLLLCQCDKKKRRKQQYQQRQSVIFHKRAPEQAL

In general, Emax refers to the maximal effect, on the per cent scale that the assay sets. Turning to `COc1c(F)cc(F)cc1C1CCN(C2CC3CCC(C3)C2)CC1` (stereo not drawn) [Compound 311], at M1 muscarinic receptor, the Emax is less than 25% and the “M1 Activity” value is reported as “+ (activity was measured to be greater than 5.0 μM)”. Moreover, at M4 muscarinic receptor, the Emax lay in the range of 25 to 100% and the “M4 Activity” value is “+++ (activity was measured to be less than 1.0 μM)”. Further, at M3 muscarinic receptor, the Emax was less than 25% and the “M3 Activity” value is recorded as “+ (activity was measured to be greater than 5.0 μM)”. Moreover, at M2 muscarinic receptor, the Emax is less than 25% and the “M2 Activity” value is reported as “+ (activity was measured to be greater than 5.0 μM)”.
For the molecule `COc1ccc(-c2ccc(C(=O)Nc3nccs3)cc2)cc1C1CCN(C2CC3CCC(C3)C2)CC1` (stereo not drawn) [Compound 313], on M1 muscarinic receptor, the maximal effect (Emax) is less than 25% and the “M1 Activity” value is recorded as “+ (activity was measured to be greater than 5.0 μM)”. Besides, on M4 muscarinic receptor, the Emax was less than 25% and the “M4 Activity” value is “+ (activity was measured to be greater than 5.0 μM)”. On M3 muscarinic receptor, the Emax is less than 25% and the “M3 Activity” value is on record as “+ (activity was measured to be greater than 5.0 μM)”. At M2 muscarinic receptor, the Emax was less than 25% and the “M2 Activity” value is “+ (activity was measured to be greater than 5.0 μM)”.
Consider `COc1ccc(F)cc1C1(F)CCN(C2CCOCC2)CC1` [Compound 314], for which, at M1 muscarinic receptor, the maximum response (Emax) was less than 25% and the “M1 Activity” value is on record as “+ (activity was measured to be greater than 5.0 μM)”. At M4 muscarinic receptor, the Emax fell in the range of 25 to 100% and the “M4 Activity” value is listed as “+ (activity was measured to be greater than 5.0 μM)”. For the same molecule, at M3 muscarinic receptor, the maximum response (Emax) is less than 25% and the “M3 Activity” value is on record as “+ (activity was measured to be greater than 5.0 μM)”. For the same molecule, at M2 muscarinic receptor, the Emax was less than 25% and the “M2 Activity” value is on record as “+ (activity was measured to be greater than 5.0 μM)”.
With `CCOC(=O)N1C2CCC1CC(N1CCC(c3cc(-c4ccc(C#N)cc4)ccc3OC)CC1)C2` (stereo not drawn) [Compound 317], on M1 muscarinic receptor, the Emax lay in the range of 25 to 100% and the “M1 Activity” value is on record as “++ (activity was measured to be from 1.0 μM to 5.0 μM)”. In addition, on M4 muscarinic receptor, the Emax fell in the range of 25 to 100% and the “M4 Activity” value was “++ (activity was measured to be from 1.0 μM to 5.0 μM)”. Also, on M3 muscarinic receptor, the Emax is less than 25% and the “M3 Activity” value was “+ (activity was measured to be greater than 5.0 μM)”. Further, on M2 muscarinic receptor, the Emax was less than 25% and the “M2 Activity” value is reported as “+ (activity was measured to be greater than 5.0 μM)”.
On to `COc1ccc(-c2cccc(F)c2F)cc1C1CCN([C@@H]2C[C@H]3CC[C@H]2C3)CC1` [Compound 318], for which, at M1 muscarinic receptor, the Emax was less than 25% and the “M1 Activity” value was “+ (activity was measured to be greater than 5.0 μM)”. On M4 muscarinic receptor, the Emax lay within 25 to 100% and the “M4 Activity” value is listed as “+ (activity was measured to be greater than 5.0 μM)”. Moreover, at M3 muscarinic receptor, the Emax is less than 25% and the “M3 Activity” value is on record as “+ (activity was measured to be greater than 5.0 μM)”. On M2 muscarinic receptor, the Emax is less than 25% and the “M2 Activity” value is on record as “+ (activity was measured to be greater than 5.0 μM)”.
For `COc1ccccc1C1CCN(CC2CCCCC2)CC1` [Compound 320], at M1 muscarinic receptor, the Emax was less than 25% and the “M1 Activity” value is given as “+ (activity was measured to be greater than 5.0 μM)”. On M4 muscarinic receptor, the Emax fell in the range of 25 to 100% and the “M4 Activity” value was “++ (activity was measured to be from 1.0 μM to 5.0 μM)”. Also, on M3 muscarinic receptor, the Emax is less than 25% and the “M3 Activity” value is “+ (activity was measured to be greater than 5.0 μM)”. On M2 muscarinic receptor, the Emax was less than 25% and the “M2 Activity” value is “+ (activity was measured to be greater than 5.0 μM)”.
Turning to `COc1ccc(C(C)=O)cc1C1CCN([C@H]2C[C@H]3CC[C@H]2C3)CC1` [Compound 321], on M1 muscarinic receptor, the Emax was less than 25% and the “M1 Activity” value is on record as “+ (activity was measured to be greater than 5.0 μM)”. Besides, at M4 muscarinic receptor, the Emax was less than 25% and the “M4 Activity” value is “+ (activity was measured to be greater than 5.0 μM)”. In addition, on M3 muscarinic receptor, the Emax is less than 25% and the “M3 Activity” value is reported as “+ (activity was measured to be greater than 5.0 μM)”. Further, on M2 muscarinic receptor, the Emax was less than 25% and the “M2 Activity” value is “+ (activity was measured to be greater than 5.0 μM)”.
In the case of `CCOC(=O)N1C2CCC1CC(N1CCC(c3cc(OC)cc(F)c3F)CC1)C2` (stereo not drawn) [Compound 322], at M1 muscarinic receptor, the Emax was in the range of 25 to 100% and the “M1 Activity” value is listed as “+++ (activity was measured to be less than 1.0 μM)”. At M4 muscarinic receptor, the Emax lay within 25 to 100% and the “M4 Activity” value was “+++ (activity was measured to be less than 1.0 μM)”. At M3 muscarinic receptor, the maximal effect (Emax) is less than 25% and the “M3 Activity” value is on record as “+ (activity was measured to be greater than 5.0 μM)”. Further, on M2 muscarinic receptor, the Emax was less than 25% and the “M2 Activity” value is recorded as “++ (activity was measured to be from 1.0 μM to 5.0 μM)”.
Turning to `COc1ccc(-c2ccc(C(=O)Nc3nccs3)cc2)cc1C1CCN(C2CCCCC2)CC1` [Compound 323], at M1 muscarinic receptor, the Emax is less than 25% and the “M1 Activity” value is reported as “+ (activity was measured to be greater than 5.0 μM)”. On M4 muscarinic receptor, the Emax fell in the range of 25 to 100% and the “M4 Activity” value is recorded as “++ (activity was measured to be from 1.0 μM to 5.0 μM)”. On M3 muscarinic receptor, the Emax is less than 25% and the “M3 Activity” value is recorded as “+ (activity was measured to be greater than 5.0 μM)”. At M2 muscarinic receptor, the Emax is less than 25% and the “M2 Activity” value is given as “+ (activity was measured to be greater than 5.0 μM)”.
In the case of `CCC1(O)CCC(N2CCC(c3cc(Cl)ccc3OC)CC2)CC1` (stereo not drawn) [Compound 324], on M1 muscarinic receptor, the Emax was less than 25% and the “M1 Activity” value is “+ (activity was measured to be greater than 5.0 μM)”. In addition, at M4 muscarinic receptor, the Emax lay within 25 to 100% and the “M4 Activity” value is recorded as “+++ (activity was measured to be less than 1.0 μM)”. For the same molecule, at M3 muscarinic receptor, the Emax is less than 25% and the “M3 Activity” value is given as “+ (activity was measured to be greater than 5.0 μM)”. Further, at M2 muscarinic receptor, the Emax was less than 25% and the “M2 Activity” value is “+ (activity was measured to be greater than 5.0 μM)”.
In the case of `COc1ccc(C(C)(C)C)cc1C1CCN([C@@H]2C[C@@H]3CC[C@H]2C3)CC1` [Compound 325, 1-((1S,2R,4R)-bicyclo[2.2.1]heptan-2-yl)-4-(5-tert-butyl-2-methoxy-phenyl) piperidine], on M1 muscarinic receptor, the Emax was in the range of 25 to 100% and the “M1 Activity” value is on record as “++ (activity was measured to be from 1.0 μM to 5.0 μM)”. Also, at M4 muscarinic receptor, the Emax is 25 to 100% and the “M4 Activity” value is “++ (activity was measured to be from 1.0 μM to 5.0 μM)”. On M3 muscarinic receptor, the Emax fell in the range of 25 to 100% and the “M3 Activity” value is on record as “+ (activity was measured to be greater than 5.0 μM)”. At M2 muscarinic receptor, the Emax was 25 to 100% and the “M2 Activity” value was “+ (activity was measured to be greater than 5.0 μM)”.
`COc1ccc(Cl)cc1C1(F)CCN(CC2CC3CCC2C3)CC1` (stereo not drawn) [Compound 326]: on M1 muscarinic receptor, the Emax lay in the range of 25 to 100% and the “M1 Activity” value is “+ (activity was measured to be greater than 5.0 μM)”. Besides, at M4 muscarinic receptor, the Emax is 25 to 100% and the “M4 Activity” value is “++ (activity was measured to be from 1.0 μM to 5.0 μM)”. At M3 muscarinic receptor, the Emax was less than 25% and the “M3 Activity” value is on record as “+ (activity was measured to be greater than 5.0 μM)”. Further, at M2 muscarinic receptor, the Emax was 25 to 100% and the “M2 Activity” value was “+ (activity was measured to be greater than 5.0 μM)”.
